# Key:
# Assay in all cases: KINOMEscan competition binding
# Details in all cases: compound 10.0 µM
# CAMK2A (human) = CAMK2A (human) (UniProt Q9UQM7)
# CSNK1G2 (human) = CSNK1G2 (human) (UniProt P78368)
# AURKA (human) = AURKA (human) (UniProt O14965)
# ERBB2 (human) = ERBB2 (human) (UniProt P04626)
# EPHB2 (human) = EPHB2 (human) (UniProt P29323)
# ANKK1 (human) = ANKK1 (human) (UniProt Q8NFD2)
# FRK (human) = FRK (human) (UniProt P42685)
# NEK7 (human) = NEK7 (human) (UniProt Q8TDX7)
# MAPK3 (human) = MAPK3 (human) (UniProt P27361)
# MARK3 (human) = MARK3 (human) (UniProt P27448)
# MAPK6 (human) = MAPK6 (human) (UniProt Q16659)
# ACVRL1 (human) = ACVRL1 (human) (UniProt P37023)
# MAP4K1 (human) = MAP4K1 (human) (UniProt Q92918)
# SGK110 (human) = SGK110 (human) (UniProt P0C264)
# FGR (human) = FGR (human) (UniProt P09769)
# NUAK2 (human) = NUAK2 (human) (UniProt Q9H093)
# MYO3A (human) = MYO3A (human) (UniProt Q8NEV4)
# IRAK3 (human) = IRAK3 (human) (UniProt Q9Y616)
# MAP3K11 (human) = MAP3K11 (human) (UniProt Q16584)
# PRKACA (human) = PRKACA (human) (UniProt P17612)
# PAK3 (human) = PAK3 (human) (UniProt O75914)
# PHKG1 (human) = PHKG1 (human) (UniProt Q16816)
# TNK2 (human) = TNK2 (human) (UniProt Q07912)
# PKN1 (human) = PKN1 (human) (UniProt Q16512)
# CAMK2G (human) = CAMK2G (human) (UniProt Q13555)
# MAP2K6 (human) = MAP2K6 (human) (UniProt P52564)
# CAMK1D (human) = CAMK1D (human) (UniProt Q8IU85)
# FLT4 (human) = FLT4 (human) (UniProt P35916)
# EPHA5 (human) = EPHA5 (human) (UniProt P54756)
# LTK (human) = LTK (human) (UniProt P29376)
# BMPR2 (human) = BMPR2 (human) (UniProt Q13873)
# MUSK (human) = MUSK (human) (UniProt O15146)
# HCK (human) = HCK (human) (UniProt P08631)
# MET (human) = MET (human) (UniProt P08581)
# MAPK4 (human) = MAPK4 (human) (UniProt P31152)
# PRKCH (human) = PRKCH (human) (UniProt P24723)
# CDK3 (human) = CDK3 (human) (UniProt Q00526)
# PKMYT1 (human) = PKMYT1 (human) (UniProt Q99640)
# TEC (human) = TEC (human) (UniProt P42680)
# AKT2 (human) = AKT2 (human) (UniProt P31751)
# PLK3 (human) = PLK3 (human) (UniProt Q9H4B4)
# NEK5 (human) = NEK5 (human) (UniProt Q6P3R8)
# ULK3 (human) = ULK3 (human) (UniProt Q6PHR2)
# Sequence of CSNK1G2 (human) (P78368 whole entry, looked up): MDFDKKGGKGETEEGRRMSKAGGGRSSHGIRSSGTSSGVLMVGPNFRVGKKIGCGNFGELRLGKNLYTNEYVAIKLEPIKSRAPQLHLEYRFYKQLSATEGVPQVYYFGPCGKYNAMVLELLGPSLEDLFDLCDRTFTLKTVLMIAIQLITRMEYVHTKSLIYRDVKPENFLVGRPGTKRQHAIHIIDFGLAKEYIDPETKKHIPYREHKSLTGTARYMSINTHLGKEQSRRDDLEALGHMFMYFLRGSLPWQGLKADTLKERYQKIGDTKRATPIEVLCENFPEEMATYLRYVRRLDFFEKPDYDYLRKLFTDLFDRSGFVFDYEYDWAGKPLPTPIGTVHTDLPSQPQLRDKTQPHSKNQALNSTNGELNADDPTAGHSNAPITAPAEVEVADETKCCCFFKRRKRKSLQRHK
# Sequence of MET (human) (P08581 whole entry, looked up): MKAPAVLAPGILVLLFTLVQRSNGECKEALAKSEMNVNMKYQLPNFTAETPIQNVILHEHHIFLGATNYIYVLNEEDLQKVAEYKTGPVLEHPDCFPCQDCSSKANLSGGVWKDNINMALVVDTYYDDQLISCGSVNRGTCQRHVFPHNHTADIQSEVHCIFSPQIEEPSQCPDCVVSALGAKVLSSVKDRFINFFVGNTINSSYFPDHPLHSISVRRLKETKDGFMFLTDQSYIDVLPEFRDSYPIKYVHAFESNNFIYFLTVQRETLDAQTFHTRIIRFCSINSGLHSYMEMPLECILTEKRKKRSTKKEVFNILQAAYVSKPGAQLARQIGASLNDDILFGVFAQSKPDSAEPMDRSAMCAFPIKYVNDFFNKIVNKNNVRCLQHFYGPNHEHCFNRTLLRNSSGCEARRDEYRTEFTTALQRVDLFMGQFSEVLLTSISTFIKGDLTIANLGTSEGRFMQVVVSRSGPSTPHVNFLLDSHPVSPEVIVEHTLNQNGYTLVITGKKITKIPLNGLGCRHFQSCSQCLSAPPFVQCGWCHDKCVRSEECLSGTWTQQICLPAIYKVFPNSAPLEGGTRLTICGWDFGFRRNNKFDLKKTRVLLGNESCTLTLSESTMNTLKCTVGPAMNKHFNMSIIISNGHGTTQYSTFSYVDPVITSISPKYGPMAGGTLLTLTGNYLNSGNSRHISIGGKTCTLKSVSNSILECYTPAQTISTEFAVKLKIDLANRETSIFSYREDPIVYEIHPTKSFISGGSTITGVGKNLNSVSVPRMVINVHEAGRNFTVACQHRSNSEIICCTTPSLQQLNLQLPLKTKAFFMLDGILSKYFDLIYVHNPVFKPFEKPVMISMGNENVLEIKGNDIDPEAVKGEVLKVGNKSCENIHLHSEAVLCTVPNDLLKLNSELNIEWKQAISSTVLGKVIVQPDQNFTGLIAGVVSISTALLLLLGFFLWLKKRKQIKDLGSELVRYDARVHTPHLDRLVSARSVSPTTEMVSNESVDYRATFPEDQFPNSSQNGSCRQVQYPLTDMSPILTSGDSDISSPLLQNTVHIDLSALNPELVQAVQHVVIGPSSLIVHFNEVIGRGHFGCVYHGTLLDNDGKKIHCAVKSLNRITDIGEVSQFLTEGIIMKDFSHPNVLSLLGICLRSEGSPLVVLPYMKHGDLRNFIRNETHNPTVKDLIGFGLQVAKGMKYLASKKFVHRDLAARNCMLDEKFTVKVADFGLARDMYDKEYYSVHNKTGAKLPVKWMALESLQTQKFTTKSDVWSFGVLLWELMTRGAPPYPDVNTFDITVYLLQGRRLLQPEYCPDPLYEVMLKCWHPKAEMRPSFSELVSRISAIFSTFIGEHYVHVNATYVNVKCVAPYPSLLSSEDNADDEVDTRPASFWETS
# Sequence of FLT4 (human) (P35916 whole entry, looked up): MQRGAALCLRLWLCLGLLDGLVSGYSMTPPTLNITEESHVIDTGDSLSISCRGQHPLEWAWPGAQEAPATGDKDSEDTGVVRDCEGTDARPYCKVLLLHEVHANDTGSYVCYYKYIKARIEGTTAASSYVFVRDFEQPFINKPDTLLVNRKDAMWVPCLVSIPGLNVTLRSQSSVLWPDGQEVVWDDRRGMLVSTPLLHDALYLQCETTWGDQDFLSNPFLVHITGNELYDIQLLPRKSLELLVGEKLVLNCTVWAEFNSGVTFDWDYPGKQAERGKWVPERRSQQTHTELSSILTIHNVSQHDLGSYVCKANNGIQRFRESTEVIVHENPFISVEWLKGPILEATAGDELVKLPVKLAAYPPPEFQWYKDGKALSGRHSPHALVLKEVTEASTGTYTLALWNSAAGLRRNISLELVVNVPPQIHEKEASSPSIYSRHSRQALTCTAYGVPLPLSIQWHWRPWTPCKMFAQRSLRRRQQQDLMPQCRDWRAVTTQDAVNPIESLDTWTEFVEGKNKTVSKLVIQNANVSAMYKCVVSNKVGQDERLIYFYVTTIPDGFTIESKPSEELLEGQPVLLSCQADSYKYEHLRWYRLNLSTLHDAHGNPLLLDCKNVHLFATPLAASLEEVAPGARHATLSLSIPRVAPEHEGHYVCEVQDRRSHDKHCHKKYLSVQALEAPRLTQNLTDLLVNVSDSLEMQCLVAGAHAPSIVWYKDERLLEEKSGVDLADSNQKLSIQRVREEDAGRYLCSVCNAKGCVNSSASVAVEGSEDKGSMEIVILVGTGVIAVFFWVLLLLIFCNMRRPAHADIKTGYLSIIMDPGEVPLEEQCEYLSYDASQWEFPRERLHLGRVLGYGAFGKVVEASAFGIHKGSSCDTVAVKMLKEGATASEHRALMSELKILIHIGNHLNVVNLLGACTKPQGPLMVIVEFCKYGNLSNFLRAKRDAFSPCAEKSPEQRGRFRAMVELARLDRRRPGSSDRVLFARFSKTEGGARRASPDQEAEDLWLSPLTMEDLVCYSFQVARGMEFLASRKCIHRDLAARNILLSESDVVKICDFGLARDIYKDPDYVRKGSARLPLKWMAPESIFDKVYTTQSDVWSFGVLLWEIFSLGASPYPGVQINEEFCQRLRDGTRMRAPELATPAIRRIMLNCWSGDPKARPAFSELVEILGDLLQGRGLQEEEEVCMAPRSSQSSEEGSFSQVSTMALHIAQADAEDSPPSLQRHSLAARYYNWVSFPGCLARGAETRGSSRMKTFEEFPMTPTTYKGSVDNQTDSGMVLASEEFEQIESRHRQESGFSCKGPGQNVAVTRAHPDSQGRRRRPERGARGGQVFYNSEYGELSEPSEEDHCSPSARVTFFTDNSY
# Sequence of LTK (human) (P29376 whole entry, looked up): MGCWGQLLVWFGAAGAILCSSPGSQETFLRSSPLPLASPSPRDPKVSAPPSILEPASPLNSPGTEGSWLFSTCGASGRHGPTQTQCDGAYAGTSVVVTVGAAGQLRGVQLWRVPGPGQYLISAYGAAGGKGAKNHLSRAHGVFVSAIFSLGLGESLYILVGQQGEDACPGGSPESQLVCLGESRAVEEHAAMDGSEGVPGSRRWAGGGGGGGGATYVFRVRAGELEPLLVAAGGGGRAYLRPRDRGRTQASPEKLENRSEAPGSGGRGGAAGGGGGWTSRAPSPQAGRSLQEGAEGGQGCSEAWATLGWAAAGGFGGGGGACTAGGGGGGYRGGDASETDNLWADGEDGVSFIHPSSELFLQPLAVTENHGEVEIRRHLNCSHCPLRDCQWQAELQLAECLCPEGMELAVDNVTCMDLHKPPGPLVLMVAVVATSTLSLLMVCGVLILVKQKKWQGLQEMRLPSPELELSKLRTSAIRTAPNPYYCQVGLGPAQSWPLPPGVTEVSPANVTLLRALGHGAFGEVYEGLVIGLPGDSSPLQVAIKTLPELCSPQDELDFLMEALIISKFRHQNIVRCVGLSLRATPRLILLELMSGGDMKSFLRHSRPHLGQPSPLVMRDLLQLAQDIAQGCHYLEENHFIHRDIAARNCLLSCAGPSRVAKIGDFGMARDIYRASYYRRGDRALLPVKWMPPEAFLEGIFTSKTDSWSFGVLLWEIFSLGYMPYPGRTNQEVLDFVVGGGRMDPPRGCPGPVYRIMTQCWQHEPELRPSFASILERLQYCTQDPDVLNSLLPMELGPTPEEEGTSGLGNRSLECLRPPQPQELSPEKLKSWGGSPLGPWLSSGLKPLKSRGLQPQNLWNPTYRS
# Sequence of EPHB2 (human) (P29323 whole entry, looked up): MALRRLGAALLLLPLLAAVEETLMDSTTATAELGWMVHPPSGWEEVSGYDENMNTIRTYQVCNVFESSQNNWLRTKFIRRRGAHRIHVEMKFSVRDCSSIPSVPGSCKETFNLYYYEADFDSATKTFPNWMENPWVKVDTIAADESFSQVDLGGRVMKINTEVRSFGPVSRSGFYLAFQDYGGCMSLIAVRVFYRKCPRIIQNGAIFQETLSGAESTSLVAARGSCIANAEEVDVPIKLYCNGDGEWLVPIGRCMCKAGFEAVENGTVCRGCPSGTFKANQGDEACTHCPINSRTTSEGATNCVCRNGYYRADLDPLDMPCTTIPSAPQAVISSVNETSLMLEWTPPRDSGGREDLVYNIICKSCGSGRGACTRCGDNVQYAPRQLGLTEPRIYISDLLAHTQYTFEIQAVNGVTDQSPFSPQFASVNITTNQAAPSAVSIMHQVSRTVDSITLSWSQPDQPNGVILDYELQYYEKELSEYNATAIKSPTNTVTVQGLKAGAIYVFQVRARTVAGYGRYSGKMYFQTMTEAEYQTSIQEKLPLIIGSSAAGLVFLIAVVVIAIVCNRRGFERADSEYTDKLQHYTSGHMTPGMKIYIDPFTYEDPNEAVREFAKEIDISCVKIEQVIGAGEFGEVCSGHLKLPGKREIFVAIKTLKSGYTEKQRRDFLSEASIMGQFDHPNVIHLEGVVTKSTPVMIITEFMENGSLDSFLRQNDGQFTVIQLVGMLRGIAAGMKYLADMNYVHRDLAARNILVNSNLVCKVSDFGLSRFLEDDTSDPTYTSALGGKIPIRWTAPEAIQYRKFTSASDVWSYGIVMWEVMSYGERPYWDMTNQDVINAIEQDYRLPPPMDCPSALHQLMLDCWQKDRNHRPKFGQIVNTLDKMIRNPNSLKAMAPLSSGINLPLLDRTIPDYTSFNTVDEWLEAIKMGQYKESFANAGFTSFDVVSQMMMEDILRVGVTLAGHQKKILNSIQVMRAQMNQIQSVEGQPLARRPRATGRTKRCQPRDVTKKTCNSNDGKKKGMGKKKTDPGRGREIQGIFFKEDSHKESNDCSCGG
structure (smiles),measurement,setting,value
COc1cc(N2CCN(C)CC2)ccc1Nc1ncc2c(n1)N(C)c1sccc1C(=O)N2C,"kinase still bound, per cent of control",CAMK2A (human),44%
same,"kinase still bound, per cent of control",CSNK1G2 (human),87%
same,"kinase still bound, per cent of control",AURKA (human),75%
same,"kinase still bound, per cent of control",ERBB2 (human),89%
same,"kinase still bound, per cent of control",EPHB2 (human),100%
same,"kinase still bound, per cent of control",ANKK1 (human),25%
same,"kinase still bound, per cent of control",FRK (human),13%
same,"kinase still bound, per cent of control",NEK7 (human),93%
same,"kinase still bound, per cent of control",MAPK3 (human),95%
same,"kinase still bound, per cent of control",MARK3 (human),91%
same,"kinase still bound, per cent of control",MAPK6 (human),61%
same,"kinase still bound, per cent of control",ACVRL1 (human),99%
same,"kinase still bound, per cent of control",MAP4K1 (human),82%
same,"kinase still bound, per cent of control",SGK110 (human),55%
same,"kinase still bound, per cent of control",FGR (human),98%
same,"kinase still bound, per cent of control",NUAK2 (human),8%
same,"kinase still bound, per cent of control",MYO3A (human),59%
same,"kinase still bound, per cent of control",IRAK3 (human),77%
same,"kinase still bound, per cent of control",MAP3K11 (human),100%
same,"kinase still bound, per cent of control",PRKACA (human),97%
same,"kinase still bound, per cent of control",PAK3 (human),100%
same,"kinase still bound, per cent of control",PHKG1 (human),69%
same,"kinase still bound, per cent of control",TNK2 (human),25%
same,"kinase still bound, per cent of control",PKN1 (human),91%
same,"kinase still bound, per cent of control",CAMK2G (human),57%
same,"kinase still bound, per cent of control",MAP2K6 (human),100%
same,"kinase still bound, per cent of control",CAMK1D (human),71%
same,"kinase still bound, per cent of control",FLT4 (human),96%
same,"kinase still bound, per cent of control",EPHA5 (human),80%
same,"kinase still bound, per cent of control",LTK (human),83%
same,"kinase still bound, per cent of control",BMPR2 (human),100%
same,"kinase still bound, per cent of control",MUSK (human),100%
same,"kinase still bound, per cent of control",HCK (human),100%
same,"kinase still bound, per cent of control",MET (human),96%
same,"kinase still bound, per cent of control",MAPK4 (human),66%
same,"kinase still bound, per cent of control",PRKCH (human),95%
same,"kinase still bound, per cent of control",CDK3 (human),100%
same,"kinase still bound, per cent of control",PKMYT1 (human),92%
same,"kinase still bound, per cent of control",TEC (human),91%
same,"kinase still bound, per cent of control",AKT2 (human),96%
same,"kinase still bound, per cent of control",PLK3 (human),22%
same,"kinase still bound, per cent of control",NEK5 (human),94%
same,"kinase still bound, per cent of control",ULK3 (human),100%
COc1cc(N2CCN(C)CC2)ccc1Nc1ncc2c(n1)N(C)c1ccccc1N(C)C2=O,"kinase still bound, per cent of control",CAMK2A (human),75%
same,"kinase still bound, per cent of control",CSNK1G2 (human),100%
same,"kinase still bound, per cent of control",AURKA (human),76%
same,"kinase still bound, per cent of control",ERBB2 (human),6.6%
same,"kinase still bound, per cent of control",EPHB2 (human),68%
same,"kinase still bound, per cent of control",ANKK1 (human),91%
same,"kinase still bound, per cent of control",FRK (human),51%
same,"kinase still bound, per cent of control",NEK7 (human),81%
same,"kinase still bound, per cent of control",MAPK3 (human),100%
same,"kinase still bound, per cent of control",MARK3 (human),98%
same,"kinase still bound, per cent of control",MAPK6 (human),100%
same,"kinase still bound, per cent of control",ACVRL1 (human),100%
same,"kinase still bound, per cent of control",MAP4K1 (human),100%
same,"kinase still bound, per cent of control",SGK110 (human),52%
same,"kinase still bound, per cent of control",FGR (human),100%
same,"kinase still bound, per cent of control",NUAK2 (human),100%
same,"kinase still bound, per cent of control",MYO3A (human),74%
same,"kinase still bound, per cent of control",IRAK3 (human),82%
same,"kinase still bound, per cent of control",MAP3K11 (human),100%
same,"kinase still bound, per cent of control",PRKACA (human),100%
same,"kinase still bound, per cent of control",PAK3 (human),93%
same,"kinase still bound, per cent of control",PHKG1 (human),54%
same,"kinase still bound, per cent of control",TNK2 (human),20%
same,"kinase still bound, per cent of control",PKN1 (human),80%
same,"kinase still bound, per cent of control",CAMK2G (human),95%
same,"kinase still bound, per cent of control",MAP2K6 (human),65%
same,"kinase still bound, per cent of control",CAMK1D (human),99%
same,"kinase still bound, per cent of control",FLT4 (human),100%
same,"kinase still bound, per cent of control",EPHA5 (human),99%
same,"kinase still bound, per cent of control",LTK (human),26%
same,"kinase still bound, per cent of control",BMPR2 (human),100%
same,"kinase still bound, per cent of control",MUSK (human),100%
same,"kinase still bound, per cent of control",HCK (human),96%
same,"kinase still bound, per cent of control",MET (human),90%
same,"kinase still bound, per cent of control",MAPK4 (human),100%
same,"kinase still bound, per cent of control",PRKCH (human),76%
same,"kinase still bound, per cent of control",CDK3 (human),96%
same,"kinase still bound, per cent of control",PKMYT1 (human),96%
same,"kinase still bound, per cent of control",TEC (human),100%
same,"kinase still bound, per cent of control",AKT2 (human),100%
same,"kinase still bound, per cent of control",PLK3 (human),100%
same,"kinase still bound, per cent of control",NEK5 (human),100%
same,"kinase still bound, per cent of control",ULK3 (human),100%
COc1cc(N2CCC(O)CC2)ccc1Nc1ncc2c(n1)N1CCc3cccc(c31)C(=O)N2C,"kinase still bound, per cent of control",CAMK2A (human),80%
same,"kinase still bound, per cent of control",CSNK1G2 (human),100%
same,"kinase still bound, per cent of control",AURKA (human),23%
same,"kinase still bound, per cent of control",ERBB2 (human),92%
same,"kinase still bound, per cent of control",EPHB2 (human),94%
same,"kinase still bound, per cent of control",ANKK1 (human),100%
same,"kinase still bound, per cent of control",FRK (human),81%
same,"kinase still bound, per cent of control",NEK7 (human),98%
same,"kinase still bound, per cent of control",MAPK3 (human),99%
same,"kinase still bound, per cent of control",MARK3 (human),88%
same,"kinase still bound, per cent of control",MAPK6 (human),100%
same,"kinase still bound, per cent of control",ACVRL1 (human),100%
same,"kinase still bound, per cent of control",MAP4K1 (human),96%
same,"kinase still bound, per cent of control",SGK110 (human),100%
same,"kinase still bound, per cent of control",FGR (human),93%
same,"kinase still bound, per cent of control",NUAK2 (human),60%
same,"kinase still bound, per cent of control",MYO3A (human),54%
same,"kinase still bound, per cent of control",IRAK3 (human),84%
same,"kinase still bound, per cent of control",MAP3K11 (human),100%
same,"kinase still bound, per cent of control",PRKACA (human),100%
same,"kinase still bound, per cent of control",PAK3 (human),58%
same,"kinase still bound, per cent of control",PHKG1 (human),89%
same,"kinase still bound, per cent of control",TNK2 (human),23%
same,"kinase still bound, per cent of control",PKN1 (human),100%
same,"kinase still bound, per cent of control",CAMK2G (human),80%
same,"kinase still bound, per cent of control",MAP2K6 (human),100%
same,"kinase still bound, per cent of control",CAMK1D (human),87%
same,"kinase still bound, per cent of control",FLT4 (human),93%
same,"kinase still bound, per cent of control",EPHA5 (human),88%
same,"kinase still bound, per cent of control",LTK (human),100%
same,"kinase still bound, per cent of control",BMPR2 (human),100%
same,"kinase still bound, per cent of control",MUSK (human),100%
same,"kinase still bound, per cent of control",HCK (human),100%
same,"kinase still bound, per cent of control",MET (human),90%
same,"kinase still bound, per cent of control",MAPK4 (human),100%
same,"kinase still bound, per cent of control",PRKCH (human),100%
same,"kinase still bound, per cent of control",CDK3 (human),97%
same,"kinase still bound, per cent of control",PKMYT1 (human),69%
same,"kinase still bound, per cent of control",TEC (human),100%
same,"kinase still bound, per cent of control",AKT2 (human),100%
same,"kinase still bound, per cent of control",PLK3 (human),0.75%
same,"kinase still bound, per cent of control",NEK5 (human),81%
same,"kinase still bound, per cent of control",ULK3 (human),100%
